Measurements taken from patent publication US20240208992A1, “MACROCYCLES AS CFTR MODULATORS” (Idorsia Pharmaceuticals Ltd, priority 2021, published 2024).

Molecular target: human F508del-CFTR (Homo sapiens, UniProt P13569, DEL508-508)
Assay: F508del-CFTR cell surface expression (corrector activity), DiscoveRx ß-galactosidase complementation chemiluminescence assay in recombinant U2OS cell line;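 note: U2OS cells co-expressing ProLink-tagged F508del-CFTR and a membrane-anchored enzyme acceptor, where more surface CFTR restores β-galactosidase activity measured by chemiluminescence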
Details: U2OS cell line, 16h compound incubation; for EC50: EC50, F508del-CFTR cell surface expression, geomean values; for Emax: U2OS, in relation to the Emax of the corrector lumacaftor (=100%), arithmetic mean values

human F508del-CFTR, sequence (P13569 with tags, fused parts or gaps DEL508-508): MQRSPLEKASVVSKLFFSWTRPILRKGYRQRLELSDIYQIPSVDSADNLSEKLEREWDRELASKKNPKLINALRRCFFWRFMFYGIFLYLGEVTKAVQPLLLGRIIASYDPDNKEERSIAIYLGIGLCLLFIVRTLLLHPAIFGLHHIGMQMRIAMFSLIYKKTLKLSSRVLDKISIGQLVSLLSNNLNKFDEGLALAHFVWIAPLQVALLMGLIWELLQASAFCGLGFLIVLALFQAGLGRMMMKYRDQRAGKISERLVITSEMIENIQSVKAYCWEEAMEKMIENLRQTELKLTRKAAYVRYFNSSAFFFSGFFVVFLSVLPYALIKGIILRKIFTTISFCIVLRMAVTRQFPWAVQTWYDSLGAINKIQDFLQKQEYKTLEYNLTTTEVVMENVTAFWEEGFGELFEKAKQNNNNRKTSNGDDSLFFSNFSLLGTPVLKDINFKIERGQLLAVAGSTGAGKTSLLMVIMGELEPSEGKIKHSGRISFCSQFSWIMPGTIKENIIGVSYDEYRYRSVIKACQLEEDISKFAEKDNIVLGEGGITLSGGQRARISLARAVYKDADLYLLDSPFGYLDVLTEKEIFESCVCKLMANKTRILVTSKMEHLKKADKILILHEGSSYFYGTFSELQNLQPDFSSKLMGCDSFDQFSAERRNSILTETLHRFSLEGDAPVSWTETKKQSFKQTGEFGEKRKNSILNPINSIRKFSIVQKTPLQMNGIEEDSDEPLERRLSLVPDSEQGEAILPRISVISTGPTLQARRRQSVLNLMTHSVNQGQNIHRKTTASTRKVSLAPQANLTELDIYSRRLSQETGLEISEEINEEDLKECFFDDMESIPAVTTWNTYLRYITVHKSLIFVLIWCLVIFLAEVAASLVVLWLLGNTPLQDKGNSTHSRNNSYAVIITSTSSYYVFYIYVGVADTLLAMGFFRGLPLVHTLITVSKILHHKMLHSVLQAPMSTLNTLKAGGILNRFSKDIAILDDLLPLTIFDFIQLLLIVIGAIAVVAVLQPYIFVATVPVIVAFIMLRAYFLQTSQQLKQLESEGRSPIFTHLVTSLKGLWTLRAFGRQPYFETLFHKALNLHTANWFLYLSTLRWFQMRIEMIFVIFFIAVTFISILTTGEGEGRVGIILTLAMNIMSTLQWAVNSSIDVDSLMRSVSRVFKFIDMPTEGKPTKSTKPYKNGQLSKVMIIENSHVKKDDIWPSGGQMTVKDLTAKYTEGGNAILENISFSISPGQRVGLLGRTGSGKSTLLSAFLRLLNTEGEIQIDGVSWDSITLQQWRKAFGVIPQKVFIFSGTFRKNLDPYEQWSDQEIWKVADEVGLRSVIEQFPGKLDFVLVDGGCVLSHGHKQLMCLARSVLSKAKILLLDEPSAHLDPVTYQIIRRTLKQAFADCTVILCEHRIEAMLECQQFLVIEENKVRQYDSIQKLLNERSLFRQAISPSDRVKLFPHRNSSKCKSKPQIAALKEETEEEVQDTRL

Which results are given for `[2H]C([2H])([2H])Oc1cccc(CCNC(=O)[C@@H]2CC(=O)N(C)[C@@H](CC(C)C)C(=O)N(CCC3CCCCC3)CC(=O)N[C@H](Cc3ccccc3)COc3ccc4nc(C)oc4c3C(=O)N2)c1` [Example 381, (8R,14S,18S)-8-benzyl-12-(2-cyclohexylethyl)-14-isobutyl-N-(3-(methoxy-d3)phenethyl)-2,15-dimethyl-10,13,16,20-tetraoxo-7,8,9,10,11,12,13,14,15,16,17,18,19,20-tetradecahydrooxazolo[4′,5′:5,6]benzo[1,2-p][1]oxa[4,7,10,14]tetraazacycloheptadecine-18-carboxamide]?
EC50: 68 nM; Emax: 322%

What does the source list for `CC(C)C[C@H]1C(=O)N(CCC2CCCCC2)CC(=O)N[C@H](Cc2ccccc2)COc2cnc3c(F)cccc3c2C(=O)N[C@H](C(=O)NCCc2ccc3c(c2)OCO3)CC(=O)N1C` [Example 382, (3S,7S,13R)-N-(2-(benzo[d][1,3]dioxol-5-yl)ethyl)-13-benzyl-9-(2-cyclohexylethyl)-18-fluoro-7-isobutyl-6-methyl-1,5,8,11-tetraoxo-1,2,3,4,5,6,7,8,9,10,11,12,13,14-tetradecahydro-[1]oxa[4,7,10,14]tetraazacycloheptadecino[17,16-c]quinoline-3-carboxamide]?
EC50: 44 nM; Emax: 264%

What does the source list for `COc1cccc(CCNC(=O)[C@@H]2CC(=O)N(C)[C@@H](CC(C)C)C(=O)N(CCC3CCCCC3)CC(=O)N[C@H](Cc3ccccc3)COc3cnc4c(F)cccc4c3C(=O)N2)c1` [Example 383, (3S,7S,13R)-13-benzyl-9-(2-cyclohexylethyl)-18-fluoro-7-isobutyl-N-(3-methoxyphenethyl)-6-methyl-1,5,8,11-tetraoxo-1,2,3,4,5,6,7,8,9,10,11,12,13,14-tetradecahydro-[1]oxa[4,7,10,14]tetraazacycloheptadecino[17,16-c]quinoline-3-carboxamide]?
EC50: 65 nM; Emax: 317%

With `[2H]C([2H])([2H])Oc1cccc(CCNC(=O)[C@@H]2CC(=O)N(C)[C@@H](CC(C)C)C(=O)N(CCC3CCCCC3)CC(=O)N[C@H](Cc3ccccc3)COc3cnc4c(F)cccc4c3C(=O)N2)c1` [Example 384, (3S,7S,13R)-13-benzyl-9-(2-cyclohexylethyl)-18-fluoro-7-isobutyl-N-(3-(methoxy-d3)phenethyl)-6-methyl-1,5,8,11-tetraoxo-1,2,3,4,5,6,7,8,9,10,11,12,13,14-tetradecahydro-[1]oxa[4,7,10,14]tetraazacycloheptadecino[17,16-c]quinoline-3-carboxamide] as the compound, how does the EC50 read?
Its EC50 is 54 nM.

And the Emax?
The Emax was 282%.

What does the source list for `COc1cccc(CCNC(=O)[C@@H]2CC(=O)N(C)[C@@H](CC(C)C)C(=O)N(C)C3(CC3)C(=O)N[C@H](Cc3ccccc3)COc3ccc4ccccc4c3C(=O)N2)c1` [Example 385, (3′S,7′S,13′R)-13′-benzyl-7′-isobutyl-N-(3-methoxyphenethyl)-6′,9′-dimethyl-1′,5′,8′,11′-tetraoxo-2′,3′,4′,5′,6′,7′,8′,9′,11′,12′,13′,14′-dodecahydro-1′H-spiro[cyclopropane-1,10′-naphtho[1,2-p][1]oxa[4,7,10,14]tetraazacycloheptadecine]-3′-carboxamide]?
EC50: 191 nM; Emax: 326%

What does the source list for `COc1cccc(CCNC(=O)[C@@H]2CC(=O)N(C)[C@@H](CC(C)C)C(=O)NC3(CC3)C(=O)N[C@H](Cc3ccccc3)COc3ccc4ccccc4c3C(=O)N2)c1` [Example 386, (3′S,7′S,13′R)-13′-benzyl-7′-isobutyl-N-(3-methoxyphenethyl)-6′-methyl-1′,5′,8′,11′-tetraoxo-2′,3′,4′,5′,6′,7′,8′,9′,11′,12′,13′,14′-dodecahydro-1′H-spiro[cyclopropane-1,10′-naphtho[1,2-p][1]oxa[4,7,10,14]tetraazacycloheptadecine]-3′-carboxamide]?
EC50: 393 nM; Emax: 149%

Which EC50 does the source give for `CC(C)C[C@H]1C(=O)N2CCOC[C@@H]2C(=O)N[C@H](Cc2ccccc2)COc2ccc3ccccc3c2C(=O)N[C@H](C(=O)NCCc2ccc(-n3nccn3)cc2)CC(=O)N1C` [Example 387, (4aR,7R,18S,22S)-N-(4-(2H-1,2,3-triazol-2-yl)phenethyl)-7-benzyl-22-isobutyl-21-methyl-5,16,20,23-tetraoxo-1,2,4,4a,5,6,7,8,16,17,18,19,20,21,22,23-hexadecahydronaphtho[1,2-p][1,4]oxazino[3,4-f][1]oxa[4,7,10,14]tetraazacycloheptadecine-18-carboxamide] here?
The EC50 was 342 nM.

What about the Emax of the same compound?
The Emax was 215%.

Which EC50 does the source give for `COc1cccc(CCNC(=O)[C@@H]2CC(=O)N(C)[C@@H](CC(C)C)C(=O)N3CCN(C4CC4)C[C@H]3C(=O)N[C@H](Cc3ccccc3)COc3cnc4ccccc4c3C(=O)N2)c1` [Example 388, (9S,13S,19aS,22R)-22-benzyl-18-cyclopropyl-13-isobutyl-N-(3-methoxyphenethyl)-12-methyl-7,11,14,20-tetraoxo-7,8,9,10,11,12,13,14,17,18,19,19a,20,21,22,23-hexadecahydro-16H-pyrazino[2′,11:6,7][1]oxa[4,7,10,14]tetraazacycloheptadecino[17,16-c]quinoline-9-carboxamide] here?
Its EC50 is 310 nM.

What about the Emax of the same compound?
Its Emax is 163%.

How did the EC50 turn out when `COc1cccc(CCNC(=O)[C@@H]2CC(=O)N(C)[C@@H](CC(C)C)C(=O)N3CCN(C4CC4)C[C@@H]3C(=O)N[C@H](Cc3ccccc3)COc3cnc4ccccc4c3C(=O)N2)c1` [Example 389, (9S,13S,19aR,22R)-22-benzyl-18-cyclopropyl-13-isobutyl-N-(3-methoxyphenethyl)-12-methyl-7,11,14,20-tetraoxo-7,8,9,10,11,12,13,14,17,18,19,19a,20,21,22,23-hexadecahydro-16H-pyrazino[2′,1′:6,7][1]oxa[4,7,10,14]tetraazacycloheptadecino[17,16-c]quinoline-9-carboxamide] was run?
The EC50 was 115 nM.

What about the Emax of the same compound?
The Emax was 320%.

Which EC50 does the source give for `COc1cccc(CCNC(=O)[C@@H]2CC(=O)N(C)[C@@H](CC(C)C)C(=O)N3CCN(C4CCC4)C[C@H]3C(=O)N[C@H](Cc3ccccc3)COc3cnc4ccccc4c3C(=O)N2)c1` [Example 390, (9S,13S,19aS,22R)-22-benzyl-18-cyclobutyl-13-isobutyl-N-(3-methoxyphenethyl)-12-methyl-7,11,14,20-tetraoxo-7,8,9,10,11,12,13,14,17,18,19,19a,20,21,22,23-hexadecahydro-16H-pyrazino[2′,11:6,7][1]oxa[4,7,10,14]tetraazacycloheptadecino[17,16-c]quinoline-9-carboxamide] here?
The EC50 was 269 nM.

What about the Emax of the same compound?
The Emax was 188%.

How did the EC50 turn out when `COc1cccc(CCNC(=O)[C@@H]2CC(=O)N(C)[C@@H](CC(C)C)C(=O)N3CCN(C4CCC4)C[C@@H]3C(=O)N[C@H](Cc3ccccc3)COc3cnc4ccccc4c3C(=O)N2)c1` [Example 391, (9S,13S,19aR,22R)-22-benzyl-18-cyclobutyl-13-isobutyl-N-(3-methoxyphenethyl)-12-methyl-7,11,14,20-tetraoxo-7,8,9,10,11,12,13,14,17,18,19,19a,20,21,22,23-hexadecahydro-16H-pyrazino[2′,1′:6,7][1]oxa[4,7,10,14]tetraazacycloheptadecino[17,16-c]quinoline-9-carboxamide] was run?
Its EC50 is 70 nM.

And the Emax?
The Emax was 319%.

Which EC50 does the source give for `CC(C)C[C@H]1C(=O)N2CCN(C3CC3)C[C@H]2C(=O)N[C@H](Cc2ccccc2)COc2cnc3ccccc3c2C(=O)N[C@H](C(=O)NCCc2ccc3c(c2)OCO3)CC(=O)N1C` [Example 392, (9S,13S,19aS,22R)-N-(2-(benzo[d][1,3]dioxol-5-yl)ethyl)-22-benzyl-18-cyclopropyl-13-isobutyl-12-methyl-7,11,14,20-tetraoxo-7,8,9,10,11,12,13,14,17,18,19,19a,20,21,22,23-hexadecahydro-16H-pyrazino[2′,1′:6,7][1]oxa[4,7,10,14]tetraazacycloheptadecino[17,16-c]quinoline-9-carboxamide] here?
Its EC50 is 327 nM.

What about the Emax of the same compound?
The Emax was 144%.

Which EC50 does the source give for `CC(C)C[C@H]1C(=O)N2CCN(C3CC3)C[C@@H]2C(=O)N[C@H](Cc2ccccc2)COc2cnc3ccccc3c2C(=O)N[C@H](C(=O)NCCc2ccc3c(c2)OCO3)CC(=O)N1C` [Example 393, (9S,13S,19aR,22R)-N-(2-(benzo[d][1,3]dioxol-5-yl)ethyl)-22-benzyl-18-cyclopropyl-13-isobutyl-12-methyl-7,11,14,20-tetraoxo-7,8,9,10,11,12,13,14,17,18,19,19a,20,21,22,23-hexadecahydro-16H-pyrazino[2′,11:6,7][1]oxa[4,7,10,14]tetraazacycloheptadecino[17,16-c]quinoline-9-carboxamide] here?
The EC50 was 118 nM.

What about the Emax of the same compound?
Its Emax is 314%.

Which results are given for `CC(C)C[C@H]1C(=O)N2CCN(C3CCC3)C[C@H]2C(=O)N[C@H](Cc2ccccc2)COc2cnc3ccccc3c2C(=O)N[C@H](C(=O)NCCc2ccc3c(c2)OCO3)CC(=O)N1C` [Example 394, (9S,13S,19aS,22R)-N-(2-(benzo[d][1,3]dioxol-5-yl)ethyl)-22-benzyl-18-cyclobutyl-13-isobutyl-12-methyl-]?
EC50: 262 nM; Emax: 151%

`CC(C)C[C@H]1C(=O)N2CCN(C3CCC3)C[C@@H]2C(=O)N[C@H](Cc2ccccc2)COc2cnc3ccccc3c2C(=O)N[C@H](C(=O)NCCc2ccc3c(c2)OCO3)CC(=O)N1C` [Example 395, (9S,13S,19aR,22R)-N-(2-(benzo[d][1,3]dioxol-5-yl)ethyl)-22-benzyl-18-cyclobutyl-13-isobutyl-12-methyl-7,11,14,20-tetraoxo-7,8,9,10,11,12,13,14,17,18,19,19a,20,21,22,23-hexadecahydro-16H-pyrazino[2′,11:6,7][1]oxa[4,7,10,14]tetraazacycloheptadecino[17,16-c]quinoline-9-carboxamide] was tested. Which EC50 did it give?
The EC50 was 110 nM.

What about the Emax of the same compound?
The Emax was 316%.
